Results from the supplement of paper PMC11451515.

How the values were obtained:
Details in all cases: 48 h
P12-Ichikawa [1] = test: AUC of viability dose-response curve (% viability x log10 dose units); higher = less sensitive
How it was run: (§1)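 In 1536-well plates, leukemia cells adapted to each medium (500 or 1000 cells/well) were exposed for 48 h at 37°C to library compounds in DMSO across 11 threefold doses, 47 μM down to 0.79 nM. Viability was read by CellTiter-Glo One luminescence and normalised per plate to DMSO and cell-free wells. A four-parameter log-logistic fit over log10 doses was integrated by trapezoidal rule. This yielded the area under the curve, with over-full-viability curves scaled and quality-control failures dropped.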

NOMO1 [2] = test: as above
How it was run: as §1

SEM cells [3] = test: as above
How it was run: as §1

P12-Ichikawa [4] = test: cell viability relative to DMSO control; higher = less cytotoxic
How it was run: (§2)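 NOMO1 or SEM (500 cells/well) or P12-Ichikawa (1000 cells/well) leukemia cells were adapted for at least four passages in each medium. They were seeded in 1536-well plates (5 μl) and pin-dosed with library compounds in DMSO over an 11-point threefold series, 47 μM to 0.79 nM. CellTiter-Glo One luminescence was read after 48 h at 37°C. Viability is the per-plate percentage relative to DMSO wells, with cell-free wells as background.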

NOMO1 [5] = test: as above
How it was run: as §2

SEM cells [6] = test: as above
How it was run: as §2

CCOC(=O)[C@H](CCc1ccccc1)N[C@H]1CCc2ccccc2N(CC(=O)O)C1=O
AUC of viability dose-response curve
Details	NOMO1 [2]	P12-Ichikawa [1]	SEM cells [3]
HPLM + 10% dialyzed FBS	429	463	458
RPMI 5 mM glucose + 10% FBS	450	458	454
RPMI 5 mM glucose + 10% dialyzed FBS	448	457	459

C\C1=C\N([C@H]2C[C@H](N=[N+]=[N-])[C@@H](CO)O2)C(=O)NC1=O
cell viability [%]
Details	NOMO1 [5]	P12-Ichikawa [4]	SEM cells [6]
HPLM + 10% dialyzed FBS, 0.000781 µM	94.1	101	65.4
HPLM + 10% dialyzed FBS, 0.00234 µM	109	108	68.8
HPLM + 10% dialyzed FBS, 0.00702 µM	99.4	107	82.4
HPLM + 10% dialyzed FBS, 0.0211 µM	105	120	71
HPLM + 10% dialyzed FBS, 0.0632 µM	111	111	80.8
HPLM + 10% dialyzed FBS, 0.19 µM	120	111	93.1
HPLM + 10% dialyzed FBS, 0.569 µM	109	111	95.4
HPLM + 10% dialyzed FBS, 1.71 µM	61	120	86.5
HPLM + 10% dialyzed FBS, 5.12 µM	29.7	115	81.6
HPLM + 10% dialyzed FBS, 15.4 µM	19.8	23.2	84.3
HPLM + 10% dialyzed FBS, 46.1 µM	25.7	15.1	79.3
RPMI 5 mM glucose + 10% FBS, 0.000781 µM	88.2	99.8	82.5
RPMI 5 mM glucose + 10% FBS, 0.00234 µM	109	120	85.6
RPMI 5 mM glucose + 10% FBS, 0.00702 µM	105	122	88.9
RPMI 5 mM glucose + 10% FBS, 0.0211 µM	106	111	89.3
RPMI 5 mM glucose + 10% FBS, 0.0632 µM	96.7	116	84.8
RPMI 5 mM glucose + 10% FBS, 0.19 µM	97.5	116	101
RPMI 5 mM glucose + 10% FBS, 0.569 µM	106	121	88.4
RPMI 5 mM glucose + 10% FBS, 1.71 µM	29.3	121	104
RPMI 5 mM glucose + 10% FBS, 5.12 µM	15.1	119	92.2
RPMI 5 mM glucose + 10% FBS, 15.4 µM	14.3	34.4	101
RPMI 5 mM glucose + 10% FBS, 46.1 µM	10.2	25.3	82.2
RPMI 5 mM glucose + 10% dialyzed FBS, 0.000781 µM	107	97.1	72.2
RPMI 5 mM glucose + 10% dialyzed FBS, 0.00234 µM	110	109	83.9
RPMI 5 mM glucose + 10% dialyzed FBS, 0.00702 µM	109	112	96
RPMI 5 mM glucose + 10% dialyzed FBS, 0.0211 µM	110	101	98.4
RPMI 5 mM glucose + 10% dialyzed FBS, 0.0632 µM	105	113	117
RPMI 5 mM glucose + 10% dialyzed FBS, 0.19 µM	103	111	92
RPMI 5 mM glucose + 10% dialyzed FBS, 0.569 µM	113	116	105
RPMI 5 mM glucose + 10% dialyzed FBS, 1.71 µM	68.6	110	71.8
RPMI 5 mM glucose + 10% dialyzed FBS, 5.12 µM	20.8	103	93.2
RPMI 5 mM glucose + 10% dialyzed FBS, 15.4 µM	19.6	79.9	85.7
RPMI 5 mM glucose + 10% dialyzed FBS, 46.1 µM	18.9	62	62.4

AUC of viability dose-response curve
Details	NOMO1 [2]	P12-Ichikawa [1]	SEM cells [3]
HPLM + 10% dialyzed FBS	365	419	388
RPMI 5 mM glucose + 10% FBS	339	425	434
RPMI 5 mM glucose + 10% dialyzed FBS	362	452	425

Cc1cc(C[S+](=O)([O-])c2ccccc2)cc(OCc2ccc(CN3CCC[C@@H]3CO)cc2)c1
AUC of viability dose-response curve
Details	NOMO1 [2]	P12-Ichikawa [1]	SEM cells [3]
HPLM + 10% dialyzed FBS	298	305	291
RPMI 5 mM glucose + 10% FBS	321	315	268
RPMI 5 mM glucose + 10% dialyzed FBS	323	321	285

Cc1ccc(O)c(C(CCN(C(C)C)C(C)C)c2ccccc2)c1.Cl (centres undefined)
P12-Ichikawa [4], HPLM + 10% dialyzed FBS
Details	cell viability [%]
0.000781 µM	121
0.00234 µM	122
0.00702 µM	131
0.0211 µM	137
0.0632 µM	140
0.19 µM	128
0.569 µM	129
1.71 µM	134
5.12 µM	134
15.4 µM	136
46.1 µM	127

AUC of viability dose-response curve
Details	NOMO1 [2]	P12-Ichikawa [1]	SEM cells [3]
HPLM + 10% dialyzed FBS	410	465	461
RPMI 5 mM glucose + 10% FBS	430	470	477
RPMI 5 mM glucose + 10% dialyzed FBS	435	475	463

Cc1c(O)cccc1C(=O)N[C@@H](CSc1ccccc1)[C@H](O)CN1C[C@H]2CCCC[C@H]2C[C@H]1C(=O)NC(C)(C)C
AUC of viability dose-response curve
Details	NOMO1 [2]	P12-Ichikawa [1]	SEM cells [3]
HPLM + 10% dialyzed FBS	465	447	426
RPMI 5 mM glucose + 10% FBS	459	459	453
RPMI 5 mM glucose + 10% dialyzed FBS	455	461	455

COc1cc(C(=O)N2CCC(N3CCN(C)CC3)CC2)ccc1Nc1ncc2c(n1)N(C)c1ccccc1C(=O)N2C
AUC of viability dose-response curve
Details	NOMO1 [2]	P12-Ichikawa [1]	SEM cells [3]
HPLM + 10% dialyzed FBS	419	428	376
RPMI 5 mM glucose + 10% FBS	435	435	374
RPMI 5 mM glucose + 10% dialyzed FBS	412	433	363

O=C(Nc1nc2ccccc2n1CCN1CCOCC1)c1cccc([N+](=O)[O-])c1
AUC of viability dose-response curve
Details	NOMO1 [2]	P12-Ichikawa [1]	SEM cells [3]
HPLM + 10% dialyzed FBS	447	462	474
RPMI 5 mM glucose + 10% FBS	465	445	465
RPMI 5 mM glucose + 10% dialyzed FBS	470	449	444

C[N]1C2=C(SC(=C2)[S+](C)[O-])C\3=C1C(=O)N(CC4=CC(=CC=C4)N)\N=C3 (centres undefined)
AUC of viability dose-response curve
Details	HPLM + 10% dialyzed FBS	RPMI 5 mM glucose + 10% FBS	RPMI 5 mM glucose + 10% dialyzed FBS
P12-Ichikawa [1]	414	404	392
SEM cells [3]	426	426	403

C[C@H]1[C@H](OC(=O)CCC(=O)O)O[C@@H]2O[C@@]3(C)CC[C@H]4[C@H](C)CC[C@@H]1[C@@]24OO3
AUC of viability dose-response curve
Details	NOMO1 [2]	P12-Ichikawa [1]	SEM cells [3]
HPLM + 10% dialyzed FBS	350	372	393
RPMI 5 mM glucose + 10% FBS	342	360	371
RPMI 5 mM glucose + 10% dialyzed FBS	335	351	378

CC(C)Nc1cc(-c2c[nH]c(C(=O)N[C@H](CO)c3cccc(Cl)c3)c2)c(Cl)cn1
SEM cells [6], HPLM + 10% dialyzed FBS
Details	cell viability [%]
0.000781 µM	105
0.00234 µM	118
0.00702 µM	125
0.0211 µM	123
0.0632 µM	141
0.19 µM	133
0.569 µM	144
1.71 µM	120
5.12 µM	98.7
15.4 µM	94.1
46.1 µM	11.3

AUC of viability dose-response curve
Details	NOMO1 [2]	P12-Ichikawa [1]	SEM cells [3]
HPLM + 10% dialyzed FBS	393	423	436
RPMI 5 mM glucose + 10% FBS	383	396	422
RPMI 5 mM glucose + 10% dialyzed FBS	371	394	400

CC(C)C[C@H](NC(=O)CNC(=O)c1cc(Cl)ccc1Cl)B1OC(=O)CC(CC(=O)O)(C(=O)O)O1 (some centres undefined)
cell viability [%], SEM cells [6]
Details	HPLM + 10% dialyzed FBS	RPMI 5 mM glucose + 10% FBS
0.000781 µM	101	120
0.00234 µM	120	132
0.00702 µM	125	124
0.0211 µM	145	125
0.0632 µM	128	99.9
0.19 µM	16	13.3
0.569 µM	8.29	8.91
1.71 µM	7.41	8.18
5.12 µM	5.78	6.61
15.4 µM	4.49	4.78
46.1 µM	4.53	4.54

AUC of viability dose-response curve
Details	NOMO1 [2]	P12-Ichikawa [1]	SEM cells [3]
HPLM + 10% dialyzed FBS	276	270	231
RPMI 5 mM glucose + 10% FBS	278	269	221
RPMI 5 mM glucose + 10% dialyzed FBS	280	269	235
